Where only a bound is given, the exact number is not on record here.

The first assay deals with RPEMYC^H2B-GFP cells. Description: Phenotypic screening assay (mitotic arrest, polyploidy). In kind it is cell-based. The conditions noted are these: 1 nM to 30 μM, read-out: Min. Effective conc. for Polyploidy (≥5%). The method, boiled down: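 RPE cells expressing MYC and H2B-EGFP treated with compound at 1 nM–30 μM; mitotic index scored at 24 h and polyploidy (DNA content) at 48 h by automated imaging, with reads at 24, 48 or 72 h. Hits show transient mitotic arrest followed by polyploid accumulation.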
Turning to `COC(=O)c1cc(Oc2ccnc3ccccc23)cc(C(=O)OC)c1` [Compound 15, dimethyl 5-(quinolin-4-yloxy)isophthalate], the minimal effective concentration lay within 0.001 to 1 µM.

The assay is the same for the next values; noted with them: 1 nM to 30 μM, read-out: Mitotic Arrest (≥5%).
Consider `COC(=O)c1cc(Oc2ccnc3ccccc23)cc(C(=O)OC)c1` [Compound 15, dimethyl 5-(quinolin-4-yloxy)isophthalate], for which the minimal effective concentration is 0.001 to 1 µM.

The same assay, now with this note: 1 nM to 30 μM, read-out: Proliferative arrest (>50%).
On to `COC(=O)c1cc(Oc2ccnc3ccccc23)cc(C(=O)OC)c1` [Compound 15, dimethyl 5-(quinolin-4-yloxy)isophthalate], for which the IC50 lay within 1 to 1000 nM.

The test system of a further assay is HCT116. Description: MECP in cancer cell line. The format is cell-based. The following applies: Homo sapiens, HCT-116. The method, boiled down:
(§1)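 Potency reported in bins: A 1 nM-1.0 μM, B to 10.0 μM, C to 30.0 μM, D above 30.0 μM. Compounds (1 nM-30 μM) applied to cells in DMEM/5% FBS; imaging-based readout at 24-72 h of mitotic index (raised at 24 h) and polyploidy (48 h), marking cytokinetic failure.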
For `COC(=O)c1cc(Oc2ccnc3ccccc23)cc(C(=O)OC)c1` [Compound 15, dimethyl 5-(quinolin-4-yloxy)isophthalate], the minimal effective concentration was in the range of 0.001 to 1 µM.

The next assay relates to Hela. As to the kind of experiment: MECP in cancer cell line. In kind it is cell-based. The following applies: Homo sapiens. Summed up:
as §1
Consider `COC(=O)c1cc(Oc2ccnc3ccccc23)cc(C(=O)OC)c1` [Compound 15, dimethyl 5-(quinolin-4-yloxy)isophthalate], for which the minimal effective concentration fell in the range of 0.001 to 1 µM.

The test system of a further assay is MDA-MB-231. As to the kind of experiment: MECP in cancer cell line. In kind it is cell-based. The conditions noted are these: Homo sapiens. Summed up:
as §1
Compound `COC(=O)c1cc(Oc2ccnc3ccccc23)cc(C(=O)OC)c1` [Compound 15, dimethyl 5-(quinolin-4-yloxy)isophthalate] gave a minimal effective concentration of 0.001 to 1 µM.

The test system of another assay is NCI-H460. As to the kind of experiment: MECP in cancer cell line. In kind it is cell-based. The conditions noted are these: Homo sapiens. Summed up: as §1
On to `COC(=O)c1cc(Oc2ccnc3ccccc23)cc(C(=O)OC)c1` [Compound 15, dimethyl 5-(quinolin-4-yloxy)isophthalate], for which the minimal effective concentration lay in the range of 1 to 10 µM.

The next assay deals with NCI-H596. Description: MECP in cancer cell line. In kind it is cell-based. The following applies: Homo sapiens. The method, boiled down:
as §1
Regarding `COC(=O)c1cc(Oc2ccnc3ccccc23)cc(C(=O)OC)c1` [Compound 15, dimethyl 5-(quinolin-4-yloxy)isophthalate], the minimal effective concentration was 0.001 to 1 µM.

Another assay deals with T2 HCC. Description: MECP in cancer cell line. In kind it is cell-based. The following applies: Mus musculus. Summed up: as §1
`COC(=O)c1cc(Oc2ccnc3ccccc23)cc(C(=O)OC)c1` [Compound 15, dimethyl 5-(quinolin-4-yloxy)isophthalate] had a minimal effective concentration of 0.001 to 1 µM.

A further assay has as its system T98G. Description: MECP in cancer cell line. In kind it is cell-based. The following applies: Homo sapiens. Summed up: as §1
Compound `COC(=O)c1cc(Oc2ccnc3ccccc23)cc(C(=O)OC)c1` [Compound 15, dimethyl 5-(quinolin-4-yloxy)isophthalate] registered a minimal effective concentration of 1 to 10 µM.

For a further assay, the system named is NCI-H23. As to the kind of experiment: MECP in cancer cell line. The following applies: Homo sapiens. The format is cell-based. Summed up:
as §1
`COC(=O)c1cc(Oc2ccnc3ccccc23)cc(C(=O)OC)c1` [Compound 15, dimethyl 5-(quinolin-4-yloxy)isophthalate]: the minimal effective concentration lay within 0.001 to 1 µM.

The test system of the next assay is HCT116. As to the kind of experiment: MTT assay of cellular proliferation. The format is cell-based. The following applies: Homo sapiens, HCT-116, 50% inhibition of cellular proliferation. Summed up: (§2)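 Proliferation is scored by MTT conversion, with formazan absorbance at 570 nm proportional to live cell number. Cultures in 5% FBS DMEM at 37 °C are treated across 1 nM-30 μM, and the half-inhibitory concentration is reported as EC50.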
On the technique in general: Formazan colour is commonly taken as a measure of viable cells.
As to `COC(=O)c1cc(Oc2ccnc3ccccc23)cc(C(=O)OC)c1` [Compound 15, dimethyl 5-(quinolin-4-yloxy)isophthalate], the EC50 (as a rule, the concentration at which the effect is half-maximal) lay in the range of 1 to 1000 nM.

The next assay relates to Hela. As to the kind of experiment: MTT assay of cellular proliferation. The conditions noted are these: Homo sapiens, 50% inhibition of cellular proliferation. In kind it is cell-based. The method, boiled down: as §2
On to `COC(=O)c1cc(Oc2ccnc3ccccc23)cc(C(=O)OC)c1` [Compound 15, dimethyl 5-(quinolin-4-yloxy)isophthalate], for which the EC50 was 1 to 1000 nM.

The subject of a further assay is MDA-MB-231. Description: MTT assay of cellular proliferation. In kind it is cell-based. The following applies: Homo sapiens; MDA-MB-231, MTT, 50% inhibition of cellular proliferation. The method, boiled down: as §2
Compound `COC(=O)c1cc(Oc2ccnc3ccccc23)cc(C(=O)OC)c1` [Compound 15, dimethyl 5-(quinolin-4-yloxy)isophthalate] returned an EC50 of 1 to 1000 nM.

A further assay concerns NCI-H23. As to the kind of experiment: MTT assay of cellular proliferation. In kind it is cell-based. The conditions noted are these: Homo sapiens, 50% inhibition of cellular proliferation. The method, boiled down:
as §2
In the case of `COC(=O)c1cc(Oc2ccnc3ccccc23)cc(C(=O)OC)c1` [Compound 15, dimethyl 5-(quinolin-4-yloxy)isophthalate], the 50% effective concentration (EC50) lay in the range of 1 to 1000 nM.

The test system of another assay is NCI-H460. As to the kind of experiment: MTT assay of cellular proliferation. The format is cell-based. The following applies: Homo sapiens, 50% inhibition of cellular proliferation. Summed up:
as §2
Compound `COC(=O)c1cc(Oc2ccnc3ccccc23)cc(C(=O)OC)c1` [Compound 15, dimethyl 5-(quinolin-4-yloxy)isophthalate] registered a 50% effective concentration (EC50) of over 30000 nM.

Another assay deals with NCI-H596. As to the kind of experiment: MTT assay of cellular proliferation. In kind it is cell-based. The conditions noted are these: Homo sapiens, 50% inhibition of cellular proliferation. Summed up: as §2
`COC(=O)c1cc(Oc2ccnc3ccccc23)cc(C(=O)OC)c1` [Compound 15, dimethyl 5-(quinolin-4-yloxy)isophthalate]: the EC50 is 1000 to 10000 nM.

The next assay has as its system T2 HCC. As to the kind of experiment: MTT assay of cellular proliferation. The format is cell-based. The conditions noted are these: Mus musculus, 50% inhibition of cellular proliferation. Summed up:
as §2
The compound `COC(=O)c1cc(Oc2ccnc3ccccc23)cc(C(=O)OC)c1` [Compound 15, dimethyl 5-(quinolin-4-yloxy)isophthalate] had an EC50 of 1 to 1000 nM.

For a further assay, the system named is T98G. As to the kind of experiment: MTT assay of cellular proliferation. The format is cell-based. The conditions noted are these: Homo sapiens, 50% inhibition of cellular proliferation. The method, boiled down:
as §2
For the compound `COC(=O)c1cc(Oc2ccnc3ccccc23)cc(C(=O)OC)c1` [Compound 15, dimethyl 5-(quinolin-4-yloxy)isophthalate], the EC50 lay within 1000 to 10000 nM.

The next assay has as its system cervical cancer cell line Hela. Description: Soft agar colony formation assay. The format is cell-based, human.
Settings: not given
From the text:
(§3) Measuring the ability of cells to grow in soft agar has been popularly believed as the gold standard assay for cellular transformation in vitro. In the Soft Agar Assay, cells grow from single cells to cell colonies in a semi-solid agar solution that keeps them away from the solid surface and allows growth in an anchorage-independent way.
(§4) The anchorage-independent growth of cells is one of the hallmarks of cancer cells. Normal epithelial cells are supported by basement membranes that provide survival and proliferative signals while undergo a type of apoptosis called anoikis when lose their attachment to the extracellular matrix. Cancer cells, in contrast, evade detachment-induced apoptosis, leading to uncontrolled proliferation and metastasis. The Soft Agar Colony Formation Assay allows testing of the therapeutic efficacy of compounds against anchorage-independent 3D growth of cancer cells in vin. The assay was performed in 6-well plates with two layers of agar. For the first, 0.75% agar in DMEM medium was melted in a microwave oven and poured to form a bottom layer. Once solidified, 10-100K cells in 1 ml of DMEM containing 0.35% agar was added to form the top layer, which was later covered with 0.5 ml of DMEM. Cell culture medium was changed once every two days until colonies were ready to photograph. We test the antitumor activity of select compounds in soft agar colony formation assays. […] The suppression of growth of these three cancer cell lines in 3D culture is consistent with the potent impact of these compounds on cellular proliferation in 2D culture.
For the compound `COC(=O)c1cc(Oc2ccnc3ccccc23)cc(C(=O)OC)c1` [Compound 15, dimethyl 5-(quinolin-4-yloxy)isophthalate], the “anchorage-independent growth in soft agar” value is on record as “effectively suppressed the anchorage-independent growth”.

Another assay has as its system Human Cancer Cells. Description: Anchorage-independent growth in 3D culture (FIG. 3). The conditions noted are these: FIG. 3 legend, cell line not named. In kind it is cell-based.
Description: as §3, §4
Take `COC(=O)c1cc(Oc2ccnc3ccccc23)cc(C(=O)OC)c1` [Compound 15, dimethyl 5-(quinolin-4-yloxy)isophthalate]: the “Anchorage-independent Growth of Human Cancer Cells in 3D Culture” value was “Suppress the Anchorage-independent Growth”.

The record behind these values is US20240239806A1, “COMPOUNDS, COMPOSITIONS AND METHODS OF TREATING DISORDERS” (Chengdu Anticancer Bioscience, Ltd., priority 2021, published 2024).
